Laboratory results taken from patent publication US20030175438A1, “Treatments of solid substrates to enhance durability of treatments placed thereon” (priority 2002, published 2003).

Columns and labels:
E. coli = assay: CTM-0923 Dynamic Shake Flask Test (antimicrobial efficacy of treated fabric); format: cell-based; design: concentration or dose not given beside the values
Procedure: Sample Preparation: Fabric samples were obtained from the JoAnn fabric chain and were commercial fabrics. […] The treatment solutions were allowed to hydrolyze from the trimethoxysilyl form to the trisilanol form before adding the fabrics. This takes only a few minutes to essentially complete. The solution temperature was raised to 100° C. before treating the fabrics for 60 seconds by immersion in the solutions with moderate agitation of the solution within the flask. After removing the samples from the hot solution, they were nip rolled to remove excess liquid. […] The samples were air dried before testing unless otherwise noted. The Extraction, stated in percent, was measured using the Bromphenol Blue Extraction Method using spectrophotometric determination. This method is CTM 0824, which has been modified for use herein in the following manner. The chlorinated solvent has been eliminated and the wavelength is 595 nm. Further, Dow Corning® […] has been substituted for the Triton.RTM. X-100 wetting agent of the test. What is measured is the diminution of the BPB Absorbance at 595 nm relative to the BPB standard solution and it is reported in percent Extraction. Antimicrobial efficacy was determined using the CTM-0923 Dynamic Shake Flask Test unless otherwise stated. Samples were air dried before testing. The % extraction was measured using the BPB extraction Method using spectrophotometric determination at 595 nm. Antimicrobial efficacy was determined, when applicable, using the ASTM CTM 0923 Dynamic Shake Flask Test. The substrate may be either wet or dry. The testing results can be found on Tables XI and XII, respectively, infra.

[1] = Bromphenol Blue (BPB) Extraction Method, spectrophotometric at 595 nm (modified CTM 0824), on treated fabric; format: physicochemical; settings: for BOILED IN WATER % EXTRACTION / CHANGE / NO BOIL % EXTRACTION: Table XII

CCCCCCCCCCCCCCCCCC[N+](C)(C)CCC[Si](OC)(OC)OC.[Cl-] [AMT, N, N-dimethyl-N-Octadecyl-3-(trimethoxysilyl)propanaminium chloride]
Efficacy - % Reduction (E. coli; ACRYLIC/MODACRYLIC, boiled 30 minutes, Table V): 84%
Efficacy - % Reduction (E. coli; ACRYLIC/MODACRYLIC, not boiled, Table V): 90%
Efficacy - % Reduction (E. coli; COTTON, boiled 30 minutes, Table V): 99%
DSF - % REDUCTION (E. coli; COTTON, boiled 30 minutes, Table VIII): 99%
DSF - % REDUCTION (E. coli; COTTON, boiled, Table X): 93%
Efficacy - % Reduction (E. coli; COTTON, not boiled, Table V): 99%
DSF - % REDUCTION (E. coli; COTTON, not boiled, Table VIII): 99%
DSF - % REDUCTION (E. coli; COTTON, not boiled, Table X): 89%
Efficacy - % Reduction (E. coli; NYLON, boiled 30 minutes, Table II): 84%
Efficacy - % Reduction (E. coli; NYLON, boiled 30 minutes, Table V): 19%
DSF - % REDUCTION (E. coli; NYLON, boiled 30 minutes, Table VIII): 22%
DSF - % REDUCTION (E. coli; NYLON, boiled, Table X): 99%
Efficacy - % Reduction (E. coli; NYLON, not boiled, Table II): 90%
Efficacy - % Reduction (E. coli; NYLON, not boiled, Table V): 99%
DSF - % REDUCTION (E. coli; NYLON, not boiled, Table VIII): 99%
DSF - % REDUCTION (E. coli; NYLON, not boiled, Table X): 99%
Efficacy - % Reduction (E. coli; PET, boiled 30 minutes, Table II): 99%
DSF - % REDUCTION (E. coli; PET, boiled 30 minutes, Table VIII): 91%
DSF - % REDUCTION (E. coli; PET, boiled, Table X (untreated control 50)): 74%
Efficacy - % Reduction (E. coli; PET, not boiled, Table II): 99%
DSF - % REDUCTION (E. coli; PET, not boiled, Table VIII): 99%
DSF - % REDUCTION (E. coli; PET, not boiled, Table X (untreated control 50)): 79%
Efficacy - % Reduction (E. coli; RAYON, boiled 30 minutes, Table II): 19%
DSF - % REDUCTION (E. coli; RAYON, boiled 30 minutes, Table VIII): 94%
DSF - % REDUCTION (E. coli; RAYON, boiled, Table X): 99%
Efficacy - % Reduction (E. coli; RAYON, not boiled, Table II): 99%
DSF - % REDUCTION (E. coli; RAYON, not boiled, Table VIII): 99%
DSF - % REDUCTION (E. coli; RAYON, not boiled, Table X): 99%
BOILED IN WATER % EXTRACTION ([1]; 130° C./5 minutes): 27%
CHANGE ([1]; 130° C./5 minutes): −34%
NO BOIL % EXTRACTION ([1]; 130° C./5 minutes): 61%
CHANGE ([1]; 130° C./30 minutes): −41%
NO BOIL % EXTRACTION ([1]; 130° C./30 minutes): 68%
% Extraction @ 595 nm ([1]; ACRYLIC MODACRYLIC, boiled 30 minutes, Table IV): 45%
% BPB EXTRACTION CHANGE ([1]; ACRYLIC MODACRYLIC, boiled vs not boiled, Table IV): −46%
% Extraction @ 595 nm ([1]; ACRYLIC MODACRYLIC, not boiled, Table IV): 91%
Boiling Durability % BPB EXTRACTION @ 595 nm ([1]; ACRYLIC, boiled 30 minutes, Table XVII): 14%
% EXTRACTION CHANGE ([1]; ACRYLIC, boiled vs not boiled, Table XVII): −42%
Boiling Durability % BPB EXTRACTION @ 595 nm ([1]; ACRYLIC, not boiled, Table XVII): 56%
BOILED IN WATER % EXTRACTION ([1]; AIR DRIED): 37%
CHANGE ([1]; AIR DRIED): −38%
NO BOIL % EXTRACTION ([1]; AIR DRIED): 75%
% BPB EXTRACTION @ 595 nm ([1]; COTTON, boiled 30 minutes, Table III): 95%
% Extraction @ 595 nm ([1]; COTTON, boiled 30 minutes, Table IV): 94%
% Extraction @ 595 nm ([1]; COTTON, boiled 30 minutes, Table VI): 94%
% BPB EXTRACTION @ 595 nm ([1]; COTTON, boiled 30 minutes, Table XV): 92%
% EXTRACTION CHANGE ([1]; COTTON, boiled vs not boiled, Table III): −1%
% EXTRACTION CHANGE ([1]; COTTON, boiled vs not boiled, Table IX): −1%
% EXTRACTION CHANGE ([1]; COTTON, boiled vs not boiled, Table VII): +2%
% EXTRACTION CHANGE ([1]; COTTON, boiled vs not boiled, Table XV): −1%
% BPB EXTRACTION @ 595 nm ([1]; COTTON, boiled, Table IX): 92%
% BPB EXTRACTION @ 595 nm ([1]; COTTON, boiled, Table VII): 97%
% BPB EXTRACTION @ 595 nm ([1]; COTTON, not boiled, Table III): 96%
% Extraction @ 595 nm ([1]; COTTON, not boiled, Table IV): 95%
% BPB EXTRACTION @ 595 nm ([1]; COTTON, not boiled, Table IX): 93%
% Extraction @ 595 nm ([1]; COTTON, not boiled, Table VI): 94%
% BPB EXTRACTION @ 595 nm ([1]; COTTON, not boiled, Table VII): 95%
% BPB EXTRACTION @ 595 nm ([1]; COTTON, not boiled, oven dried 130° C. 5 minutes, Table XV): 93%
% Extraction @ 595 nm ([1]; NYLON, boiled 30 minutes, Table I): 45%
% BPB EXTRACTION @ 595 nm ([1]; NYLON, boiled 30 minutes, Table III): 20%
% Extraction @ 595 nm ([1]; NYLON, boiled 30 minutes, Table IV): 45%
% BPB EXTRACTION @ 595 nm ([1]; NYLON, boiled 30 minutes, Table XV): 30%
Boiling Durability % BPB EXTRACTION @ 595 nm ([1]; NYLON, boiled 30 minutes, Table XVII): 26%
% BPB Extraction (change on boiling) ([1]; NYLON, boiled vs not boiled, Table I): −37%
% EXTRACTION CHANGE ([1]; NYLON, boiled vs not boiled, Table III): −57%
% BPB EXTRACTION CHANGE ([1]; NYLON, boiled vs not boiled, Table IV): −25%
